Laboratory results from patent publication US9580429B2, “Pyrrolo[3,2-D]pyrimidin-4-one derivatives and their use in therapy” (ASTRAZENECA AB, priority 2004, dated 2017).

Biological target: T1, human MPO (Homo sapiens, UniProt P05164)
T1 sequence (P05164 49-745): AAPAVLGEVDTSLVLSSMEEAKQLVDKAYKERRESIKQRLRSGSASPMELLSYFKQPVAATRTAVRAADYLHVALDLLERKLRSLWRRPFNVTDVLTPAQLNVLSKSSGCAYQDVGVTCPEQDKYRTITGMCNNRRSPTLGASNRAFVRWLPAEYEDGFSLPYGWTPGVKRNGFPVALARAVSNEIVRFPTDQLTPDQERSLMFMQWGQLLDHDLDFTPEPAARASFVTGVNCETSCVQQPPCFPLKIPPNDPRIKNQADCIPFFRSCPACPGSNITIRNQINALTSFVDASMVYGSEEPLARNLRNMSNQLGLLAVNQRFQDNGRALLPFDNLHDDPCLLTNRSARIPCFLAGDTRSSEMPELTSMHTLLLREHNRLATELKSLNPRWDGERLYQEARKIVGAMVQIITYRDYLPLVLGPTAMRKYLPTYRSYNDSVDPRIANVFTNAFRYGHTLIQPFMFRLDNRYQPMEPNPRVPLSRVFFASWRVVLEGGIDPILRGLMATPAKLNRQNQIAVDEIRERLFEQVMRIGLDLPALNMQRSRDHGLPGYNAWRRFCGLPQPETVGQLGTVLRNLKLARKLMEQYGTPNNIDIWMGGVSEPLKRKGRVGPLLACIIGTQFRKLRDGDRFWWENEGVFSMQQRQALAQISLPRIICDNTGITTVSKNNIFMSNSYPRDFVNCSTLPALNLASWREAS
Test: MPO inhibition screen (TMB oxidation, absorbance)
Type: biochemical
Settings: in the presence of tyrosine (final 8 μM); human MPO 2.5 nM; H2O2 100 μM
Experimental: Methods for the determination of MPO inhibitory activity are disclosed in patent application WO 02/090575. The pharmacological activity of compounds according to the invention was tested in the following screen in which the compounds were either tested alone or in the presence of added tyrosine:
Assay buffer: 20 mM sodium/potassium phosphate buffer pH 6.5 containing 10 mM taurine and 100 mM NaCl.
Developing reagent: 2 mM 3,3′,5,5′-tetramethylbenzidine (TMB), 200 μM KI, 200 mM acetate buffer pH 5.4 with 20% DMF.
To 10 μl of diluted compounds in assay buffer, 40 μl of human MPO (final concentration 2.5 nM), with or without 20 μM tyrosine (final concentration, if present, 8 μM), was added and the mixture was incubated for 10 minutes at ambient temperature. Then 50 μl of H2O2 (final concentration 100 μM), or assay buffer alone as a control, were added. After incubation for 10 minutes at ambient temperature, the reaction was stopped by adding 10 μl 0.2 mg/ml of catalase (final concentration 18 μg/ml). The reaction mixture was left for an additional 5 minutes before 100 μl of TMB developing reagent was added. The amount of oxidised 3,3′,5,5′-tetramethylbenzidine formed was then measured after about 5 minutes using absorbance spectroscopy at about […]. IC50 values were then determined using standard procedures.

IC50 | Compound
220 nM | CCCOc1cccc(Cn2c(=S)[nH]c(=O)c3[nH]ccc32)c1OCCOC [Example 5, 1-[2-(2-Methoxyethoxy)-3-propoxybenzyl]-2-thioxo-1,2,3,5-tetrahydro-pyrrolo[3,2-d]pyrimidin-4-one]
1100 nM | CCOC(C)(C)Cn1c(=S)[nH]c(=O)c2[nH]ccc21 [Example 11, 1-(2-Ethoxy-2-methylpropyl)-2-thioxo-1,2,3,5-tetrahydro-pyrrolo[3,2-d]pyrimidin-4-one]
260 nM | CC(C)Cn1c(=S)[nH]c(=O)c2[nH]ccc21 [Example 2, 1-Isobutyl-2-thioxo-1,2,3,5-tetrahydro-pyrrolo[3,2-d]pyrimidin-4-one]
